This assay relates to Harmaline-induced tremor. In words: Harmaline-induced Tremor Model. The format is in vivo. Conditions: Mus musculus, ip, adult male CD1 mice; test article 30 mg/kg i.p.; harmaline 30 mg/kg i.p.; read-out: Tremor Suppression Activity (magnitude of tremor suppression in percent compared to vehicle). The source says:
Harmaline-induced Tremor: Harmaline-induced tremor is widely recognized as an animal model of Essential Tremor (ET). Following acute administration, harmaline produces an 8-16 Hz tremor in rodents, cats, and monkeys that, like ET, is postural and kinetic, involving appendicular and axial musculature (Handforth, A. (2012). Harmaline tremor: underlying mechanisms in a potential animal model of essential tremor. Tremor and Other Hyperkinetic Movements (NY), 2, 02-92-769-1; Handforth, A. (2016). Linking Essential Tremor to the Cerebellum-Animal Model Evidence. Cerebellum, 15(3), 285-298; LeDoux, M. (2005). Harmaline tremor. In Movement Disorders. Elsevier Inc.; Louis, E. D. (2014). Re-thinking the biology of essential tremor: From models to morphology. Parkinsonism and Related Disorders, 20 (SUPPL.1), S88-S93). […] Clinical agents that suppress ET in patients are generally effective in the harmaline-induced tremor model (Handforth 2016). Following acute dosing of harmaline in mice, the tremor frequency (10-20 Hz) is typically recorded using an automated force plate-based system.
Procedure: Tremor activity was measured using a custom-made testing apparatus containing a piezoelectric sensing platform which was connected to an amplifier (A-M Systems model 1700). Adult male CD1 mice were brought to the experiment room for acclimatization 1 h prior to testing. Mice were first placed inside the testing apparatus for 10 min baseline habituation. After the initial habituation, mice were treated with vehicle (10 ml/kg) or test article (30 mg/kg, i.p.) and placed back in the apparatus for an additional 20 min baseline recording. Subsequently, animals were injected with harmaline (30 mg/kg, i.p.) and tremor activity was measured for 20 min. The electric signal of tremor activity was amplified at a sampling rate of 512 Hz with a multichannel amplifier and then acquired, quantized, and digitized by a data acquisition unit (CED Micro 1401). The software Spike2 (v 7.07, Cambridge Electronic Design, Cambridge, UK) was used to analyze the tremor signal by performing Fourier transformation of the data into frequency spectra. Changes in absolute power were expressed relative to each animal's 20-min baseline for the frequencies of 10-20 Hz. Comparisons between treatment and respective vehicle groups were assessed with two-tailed, Student's t-test. The level of statistical significance was defined as p<0.05 (see, e.g., Table 2.1) The magnitude of tremor suppression in percent compared to vehicle is shown in Table 2.2.
A tremor suppression score was defined as the magnitude of tremor suppression in percent compared to vehicle: ≤24% (D), 25-55% (C), 56-70% (B) and 71-100% (A). Not tested (---).

As to `C[C@H]1COc2cc(F)ccc2[C@H]1NS(N)(=O)=O` (stereo in doubt) [Compound 74, (3(R*),4(S*))-7-fluoro-3-methyl-4-(sulfamoylamino)-3,4-dihydro-2(H)-chromene], the inhibition in vivo at 30 mg/kg was 56 to 70%.

These data come from patent US20240182436A1, “SUBSTITUTED SULFONAMIDE-CHROMAN COMPOUNDS, AND PHARMACEUTICAL COMPOSITIONS, AND METHODS OF USE THEREOF” (priority 2021, published 2024).
